Measurements taken from patent publication US20260076975A1, “TPK AGONIST AND METHOD FOR USING SAME TO TREAT NEURODEGENERATIVE DISEASES” (SHANGHAI RAISING PHARMACEUTICAL CO., LTD., priority 2022, published 2026).
Like-named read-outs stand apart in the source and are kept apart here.

Molecular target: TPK enzyme (Homo sapiens, UniProt Q9H3S4)
Experiment: TPK enzyme activity test (TDP formation from thiamine and ATP, HPLC detection)
Type: biochemical
Procedure: The purpose of this example was to test the promoting effect of compounds on TPK enzyme activity and evaluate the in vitro activity of the compounds based on EC50 and Emax.
1.1) The constant-temperature water-bath shaker was pre-heated half an hour in advance at a pre-heating temperature of 37° C.
1.2) The stock solution of the compound to be tested was taken out, allowed to thaw at room temperature, and then diluted to the required concentration.
1.3) The required reagents were placed on ice to thaw.
2.1) For each reaction system, TPK enzyme solution, Tris-HCl buffer solution, and ATP solution were added. The concentration of ATP used was 1-500 mM. The above three solutions were formulated into a homogeneous mixture.
2.2) The mixture of the above three solutions was dispensed into centrifuge tubes. Then, the compound at the required concentration was added to each centrifuge tube. Finally, thiamine solution (1-100 μM) was added. After the addition of the above system was completed, the centrifuge tubes were tightly capped, inserted into a floating board, and placed in the constant-temperature water-bath shaker that had been pre-heated to 37° C. for incubation for 0.5-2.0 hours.
2.3) After the incubation was completed, perchloric acid stop solution was added and mixed well. Samples were taken into 1.5 mL centrifuge tubes and stored at −20° C.
3.1) The samples stored at −20° C. were taken out, thawed at room temperature, and then subjected to derivatization treatment. The samples were placed in centrifuge tubes, a potassium ferricyanide derivatization reagent was added, and finally phosphoric acid stop solution was added to stop the reaction.
3.2) The derivatized samples were placed in sample vials for liquid chromatography analysis, and the contents of TDP/thiamine were detected by high performance liquid chromatography. TKP enzyme activity=TDP (nM)/mg protein/min.
The effects of the compounds of the present invention on TPK enzyme activity at different concentrations were determined according to the above procedures.

[1] = promoting effect on TPK enzyme activity
[2] = promoting effect on TPK enzyme activity, calculated with the effect of DMSO on TPK enzyme activity as 100%, read-out: Emax
[3] = promoting effect on TPK enzyme activity, calculated with the effect of DMSO on TPK enzyme activity as 100%

Sequence of TPK enzyme (Q9H3S4 whole entry): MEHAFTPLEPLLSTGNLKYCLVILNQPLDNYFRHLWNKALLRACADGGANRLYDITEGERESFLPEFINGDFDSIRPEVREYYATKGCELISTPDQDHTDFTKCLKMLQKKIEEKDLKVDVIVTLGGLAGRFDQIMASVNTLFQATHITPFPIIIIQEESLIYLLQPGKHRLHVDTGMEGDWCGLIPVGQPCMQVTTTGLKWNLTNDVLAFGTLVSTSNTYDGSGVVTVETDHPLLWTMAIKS

Row | Structure (SMILES) | Emax [%] | EC50 [1] [µM] | Emax [2] [%] | Emax [3] [%]
1 | COc1ccc(/C=C/CC(=O)N2CCN(c3cccc(Cl)c3Cl)CC2)cc1OC [Compound 59, (E)-1-(4-(2,3-dichlorophenyl)piperazin-1-yl)-4-(3,4-dimethoxyphenyl)but-3-en-1-one] | 206 | 1.22 | – | –
2 | COc1ccc(/C=C/CN2CCN(c3cccc(Cl)c3Cl)CC2)cc1OC [Compound 60, (E)-1-(2,3-dichlorophenyl)-4-(3-(3,4-dimethoxyphenyl)allyl)piperazine] | – | 1.28 | 234 | –
3 | CC(O)COc1ccc(/C=C/CN2CCN(c3cccc(Cl)c3Cl)CC2)cc1O (stereo not drawn) [Compound 62, (E)-5-(3-(4-(2,3-dichlorophenyl)piperazin-1-yl)prop-1-en-1-yl)-2-(2-hydroxypropoxy)phenol] | – | 0.918 | 137 | –
4 | COc1ccc(CCNC(=O)N2CCN(c3cccc(Cl)c3Cl)CC2)cc1OC [Compound 64, 4-(2,3-dichlorophenyl)-N-(3,4-dimethoxyphenethyl)piperazine-1-carboxamide] | 184 | 4.71 | – | –
5 | COc1ccc(NC(=O)CNC(=O)N2CCN(c3cccc(Cl)c3Cl)CC2)cc1OC [Compound 65, 4-(2,3-dichlorophenyl)-N-(2-((3,4-dimethoxyphenyl)amino)-2-oxoethyl)piperazine-1-carboxamide] | 133 | – | – | –
6 | COc1cccc(NC(=O)CNC(=O)N2CCN(c3cccc(Cl)c3Cl)CC2)c1 [Compound 68, 4-(2,3-dichlorophenyl)-N-(2-((3-methoxyphenyl)amino)-2-oxoethyl)piperazine-1-carboxamide] | 144 | – | – | –
7 | COc1cncc(C#CCN2CCN(c3cccc(Cl)c3Cl)CC2)c1 [Compound 69, 1-(2,3-dichlorophenyl)-4-(3-(5-methoxypyridin-3-yl)prop-2-yn-1-yl)piperazine] | 194 | 2.72 | – | –
8 | Oc1cncc(C#CCN2CCN(c3cccc(Cl)c3Cl)CC2)c1 [Compound 70, 5-(3-(4-(2,3-dichlorophenyl)piperazin-1-yl)prop-1-yn-1-yl)pyridin-3-ol] | 147 | – | – | –
9 | COc1cncc(C#CCCN2CCN(c3cccc(Cl)c3Cl)CC2)c1 [Compound 71, 1-(2,3-dichlorophenyl)-4-(4-(5-methoxypyridin-3-yl)but-3-yn-1-yl)piperazine] | 189 | 1.19 | – | –
10 | COc1cncc(C#CC(=O)N2CCN(c3cccc(Cl)c3Cl)CC2)c1 [Compound 72, 1-(4-(2,3-dichlorophenyl)piperazin-1-yl)-3-(5-methoxypyridin-3-yl)prop-2-yn-1-one] | 171 | 3.24 | – | –
11 | COc1ccc(/C=C/CN2CCN(c3nc4ccccc4s3)CC2)cc1OC [Compound 73, (E)-2-(4-(3-(3,4-dimethoxyphenyl)allyl)piperazin-1-yl)benzo[d]thiazole] | – | 0.65 | 155 | –
12 | COc1ccc(/C=C/C(=O)N2CCN(c3nc4ccccc4s3)CC2)cc1OC [Compound 74, (E)-1-(4-(benzo[d]thiazol-2-yl)piperazin-1-yl)-3-(3,4-dimethoxyphenyl)prop-2-en-1-one] | – | 12.1 | 182 | –
13 | Cc1ccc2c(n1)N(CCCCCN1CCN(c3cccc(Cl)c3Cl)CC1)CCO2 [Compound 75, 4-(5-(4-(2,3-dichlorophenyl)piperazin-1-yl)pentyl)-6-methyl-3,4-dihydro-2H-pyrido[3,2-b][1,4]oxazine] | 136 | 0.22 | – | –
14 | Cc1ccc2c(n1)N(CCC(=O)NCCN1CCN(c3cc(Cl)ccc3C)CC1)CCO2 [Compound 76, N-(2-(4-(5-chloro-2-methylphenyl)piperazin-1-yl)ethyl)-3-(6-methyl-2,3-dihydro-4H-pyrido[3,2-b][1,4]oxazin-4-yl)propanamide] | – | 3.46 | 147 | –
15 | Cc1ccc2c(n1)N(CCCCCN1CCN(c3cc(Cl)ccc3C)CC1)CCO2 [Compound 77, 4-(5-(4-(5-chloro-2-methylphenyl)piperazin-1-yl)pentyl)-6-methyl-3,4-dihydro-2H-pyrido[3,2-b][1,4]oxazine] | 146 | – | – | –
16 | COc1cc2c(cc1OC)N(CCCCN1CCN(c3cccc(C(F)(F)F)c3)CC1)C(=O)C2 [Compound 78, 5,6-dimethoxy-1-(4-(4-(3-(trifluoromethyl)phenyl)piperazin-1-yl)butyl)indol-2-one] | 130 | – | – | –
17 | COc1cc2c(cc1OC)N(CCCCN1CCN(c3cccc(Cl)c3Cl)CC1)C(=O)C2 [Compound 79, 1-(4-(4-(2,3-dichlorophenyl)piperazin-1-yl)butyl)-5,6-dimethoxyindolin-2-one] | 133 | – | – | –
18 | CCOC(=O)c1nc(CNC(=O)CCCN2CCN(c3nc4ccccc4s3)CC2)sc1C [Compound 80, ethyl 2-((4-(4-(benzo[d]thiazol-2-yl)piperazin-1-yl)butanamido)methyl)-5-methylthiazole-4-carboxylate] | – | 2.55 | 150 | –
19 | CCOC(=O)c1nc(CNC(=O)CCCN2CCN(c3cccc(Cl)c3Cl)CC2)sc1C [Compound 82, ethyl 2-((4-(4-(2,3-dichlorophenyl)piperazin-1-yl)butanamido)methyl)-5-methylthiazole-4-carboxylate] | – | 2.52 | 156 | –

Row | Structure (SMILES) | Emax [%] | EC50 [1] [µM] | Emax [2] [%] | Emax [3] [%]
20 | Cc1ccc(Cl)cc1N1CCN(CCNC(=O)CC2Oc3ccccc3NC2=O)CC1 (stereo not drawn) [Compound 84] | – | 3.86 | – | 154.70
21 | O=C(CC1Oc2ccccc2NC1=O)NCCN1CCN(c2cccc(Cl)c2Cl)CC1 (stereo not drawn) [Compound 85, N-(2-(4-(2,3-dichlorophenyl)piperazin-1-yl)ethyl)-2-(3-oxo-3,4-dihydro-2H-benzo[b][1,4]oxazin-2-yl)acetamide] | – | – | 168 | –
22 | Cc1ccc(Cl)cc1N1CCN(CCNC(=O)CC2Oc3ccccc3NC2=O)CC1 (stereo not drawn) [Compound 91] | – | 25.8 | – | 200.91
23 | CN(CCOCc1cccc(Cl)c1Cl)CCOc1ccc2c(c1)NC(=O)CC2 [Compound 98, 7-(2-((2-((2,3-dichlorobenzyl)oxy)ethyl)(methyl)amino)ethoxy)-3,4-dihydroquinolin-2(1H)-one] | – | – | 139 | –
24 | O=C1CCc2ccc(OCCNCCC3CC3c3cccc(Cl)c3Cl)cc2N1 (stereo not drawn) [Compound 102, 7-(2-((2-(2-(2,3-dichlorophenyl)cyclopropyl)ethyl)amino)ethoxy)-3,4-dihydroquinolin-2(1H)-one] | – | 12.4 | 170 | –
25 | O=C1CCc2ccc(OCCN3CCc4cc(Cl)ccc43)cc2N1 [Compound 103, 7-(2-(5-chloroindolin-1-yl)ethoxy)-3,4-dihydroquinolin-2(1H)-one] | – | 17.3 | 137 | –
26 | O=C1CCc2cc(OCCCN3CC(=O)Nc4ccc(Cl)cc43)ccc2N1 [Compound 115, 6-chloro-4-(3-((2-oxo-1,2,3,4-tetrahydroquinolin-6-yl)oxy)propyl)-3,4-dihydroquinoxalin-2(1H)-one] | – | – | 159 | –
27 | COc1cc2c(cc1OC)C(CCCCC(=O)NCc1ccc(C(C)C)cc1)C(=O)N2 (stereo not drawn) [Compound 132, 5-(5,6-dimethoxy-2-oxoindolin-3-yl)-N-(4-isopropylbenzyl)pentanamide] | – | – | 120 | –
28 | CN(c1cccc(Cl)c1Cl)[C@@H]1CCN(CCCCOc2ccc3c(c2)NC(=O)CC3)C1 [Compound 133, (R)-7-(4-(3-((2,3-dichlorophenyl)(methyl)amino)pyrrolidin-1-yl)butoxy)-3,4-dihydroquinolin-2(1H)-one] | – | 10.8 | 167 | –
29 | COc1ccc(Cn2c(C(=O)N3CCC(CCOc4ccc5c(c4)NC(=O)CC5)CC3)cc3sccc32)cc1 [Compound 134, 7-(2-(1-(4-(4-methoxybenzyl)-4H-thieno[3,2-b]pyrrole-5-carbonyl)piperidin-4-yl)ethoxy)-3,4-dihydroquinolin-2(1H)-one] | – | – | 149 | –
30 | C[C@@H]1C[C@@H](COc2ccc3c(c2)NC(=O)CC3)CN(CC[C@@H](N)c2cccc(Cl)c2Cl)C1 [Compound 135, 7-(((3R,5R)-1-((R)-3-amino-3-(2,3-dichlorophenyl)propyl)-5-methylpiperidin-3-yl)methoxy)-3,4-dihydroquinolin-2(1H)-one] | – | – | 133 | –
31 | O=C1NCCN1CCN1CCC(c2cn(-c3ccc(F)cc3)c3ccc(Cl)cc23)CC1 [Compound 136] | – | 2.79 | 137 | –
32 | CC(C)(C)NC(=O)NC(=O)CN1CCC(c2c[nH]c3ccccc23)CC1 [Compound 137] | – | 110 | 146 | –
33 | O=C(CN1CCC(c2c[nH]c3ccccc23)CC1)NC(=O)NC1CC1 [Compound 138] | – | 1.01 | 180 | –
34 | O=C(CCc1c[nH]c2ccccc12)N1CCN(CC(=O)N2CCCC2)CC1 [Compound 139] | – | 8.09 | 191 | –
35 | O=C(CN1CCN(C(=O)CCC2Cc3ccccc3NC2=O)CC1)Nc1ccccc1Cl (stereo not drawn) [Compound 140] | – | 8.75 | 203 | –
36 | O=C1CCc2cc(OCC(=O)N3CCCN(Cc4ccc(Cl)cc4)CC3)ccc2N1 [Compound 141] | – | – | 124 | –
37 | Cc1cc2c(cc1S(=O)(=O)N(C)CC(=O)NCc1ccc(F)cc1)OCC(=O)N2 [Compound 142] | – | – | 126 | –
